Like-named read-outs stand apart in the source and are kept apart here.
What was measured:
[1] = system: SRS-A / leukotriene release from antigen-challenged, sensitized guinea pig lung; assay: Inhibition of SRS-A (leukotriene) release from antigen-challenged, sensitized guinea pig lung; assay type: cell-based; parameters: inhibition: dose or concentration left out as unconfirmed; conditions: Cavia porcellus; for inhibition: Dose 30 μm (μM)
Excerpt: The anti-allergy method of this invention is identified by tests which measure a compound's inhibition of leukotriene release in sensitized guinea pigs. Sensitized guinea pigs are killed by a blow to the head and the lungs removed and cleaned of visible connective tissue, trachea and large blood vessels. The lungs from individual animals are sliced into fragments approximately 1 mm in thickness using a McIlwain tissue chopper and then washed with oxygenated Tyrode's buffer. Weighed aliquots (approximately 400 mg wet weight) of lung are transferred into vials containing 2 ml of fresh Tyrode's solution (containing 10 mM cysteine) and incubated in the presence or absence of test compound for 12 min at 37° C. The tissues are then challenged with 20 μg ovalbumin/ml (final concentration) and incubated for 15 min. To measure leukotriene release, an aliquot of supernatant fluid is extracted with 4 volumes of 100% ethanol. After removal of the precipitated protein, the clear fluid is dried under a stream of N2 gas. The leukotriene content is measured by a radioimmunoassay using [^3 H]LTC4 and antiserum obtained from New England Nuclear. The cross-reactivity of the antiserum for LTD4 is 55%. Percent inhibition of lekotriene release is calculated by comparing for each lung the release in the presence of the test compound to that in the absence of test compound. Representative compounds of the invention at a relative dose of 50 μM of tissue are found to inhibit leukotriene release in the test procedure as indicated below in Table 1: […]

5-lipoxygenase = biological target: T1, 5-lipoxygenase (Homo sapiens, UniProt P09917); assay: 5-Lipoxygenase assay with human neutrophils; assay type: cell-based; conditions: 5 min, Human PMN; for inhibition at 15 µM: dose 15 μm (μM)
T1 construct: Human polymorphonuclear leukocytes (neutrophils) were obtained from normal healthy volunteers; endogenous in cells; host or cells: human blood neutrophils from healthy volunteers
T1 sequence (P09917 1-674): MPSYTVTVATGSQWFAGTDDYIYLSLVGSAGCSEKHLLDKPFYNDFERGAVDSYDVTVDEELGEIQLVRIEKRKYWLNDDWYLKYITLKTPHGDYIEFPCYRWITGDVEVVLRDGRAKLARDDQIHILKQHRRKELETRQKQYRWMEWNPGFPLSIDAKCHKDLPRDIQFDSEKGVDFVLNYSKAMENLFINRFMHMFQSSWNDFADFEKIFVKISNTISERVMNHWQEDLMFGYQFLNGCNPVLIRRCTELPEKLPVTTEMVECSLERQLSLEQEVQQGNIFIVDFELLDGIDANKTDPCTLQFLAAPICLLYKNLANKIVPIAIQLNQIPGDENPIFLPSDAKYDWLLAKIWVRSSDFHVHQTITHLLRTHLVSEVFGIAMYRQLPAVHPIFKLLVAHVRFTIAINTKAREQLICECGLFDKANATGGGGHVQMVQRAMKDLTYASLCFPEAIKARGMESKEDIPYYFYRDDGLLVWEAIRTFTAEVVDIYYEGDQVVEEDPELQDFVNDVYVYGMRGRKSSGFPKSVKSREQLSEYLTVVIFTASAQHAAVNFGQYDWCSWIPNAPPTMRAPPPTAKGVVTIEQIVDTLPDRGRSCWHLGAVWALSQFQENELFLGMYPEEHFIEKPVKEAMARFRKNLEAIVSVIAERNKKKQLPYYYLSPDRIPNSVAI
Description: Human polymorphonuclear leukocytes (neutrophils) were obtained from normal healthy volunteers by venipuncture and collected with heparin anticoagulant. Neutrophils were isolated by Dextran/Ficol sedimentation as described (Billah et al., J. Biol. Chem. 260, 6899-6906 (1985)). In brief, 30 ml of blood was mixed with 5 ml of dextran (Sigma) solution and kept at 37° C. for 30 min. The upper white cell-rich layer was removed and 10 ml was layered on 9 ml of Ficol-Paque solution (Pharmacia) and centrifuged at 280 xg for 10 min. at 5° C. The supernatant was removed and the neutrophil pellet was resuspended in HEPES buffer containing 25 mM N-2-hydroxyethylpiperazine-N^1 -2-ethanesulfonic acid HEPES, 125 mM NaCl, 2.5 mM KCl, 0.7 mM MgCl2, […] 10 mM glucose at pH 7.4. The red cells in the suspension were lysed by hypotonic shock. The neutrophils were washed by centrifugation in HEPES buffer two times and finally resuspended at a concentration of 20×10^6 cells/ml in the presence of 1 mM CaCl2.
Neutrophils (0.2 ml of suspension) were preincubated with dimethylsulfoxide (DMSO) vehicle with or without test compound (1 ul) for 4 minutes then incubated for 5 minutes with [^14 C] arachidonic acid (Amersham, 59 Ci/mole) at a 9 uM final concentration, and the calcium ionophore A23187 (Calbiochem) at a 1 uM final concentration. These stimulants were added in 10 ul of water:ethanol (9:1). The reaction was stopped by addition of methanol (0.4 ml), and cellular debris was removed by centrifugation. Aliquots (100 ul) of the incubations were run on a Waters two pump HPLC system fitted with a DuPont Zorbax ODS, 5u, […] Reliance Cartridge column and C18 "Guard Pak". The column was initially eluted at 2 ml/min with 80% of the mixture water:methanol:acetic acid (46:54:0.08) containing 1 mM EDTA adjusted to pH 6.0 with ammonium hydroxide (Pump A) and 20% methanol (Pump B). At 10 minutes, a linear gradient to reach 100% methanol (Pump B) at 27 minutes was established. Between 27 and 28 minutes, methanol was exchanged for the initial eluting solvent and by 35 minutes the column had been reequilibrated for the next sample. The effluent was analyzed by a continuous flow radioactivity monitor (model ROMONA-D) interfaced with a Hewlett Packard Lab Automation System for quantitation of radioactive products. These were predominantly leukotriene B4 (LTB4) which eluted at 7 minutes, and 5-hydroxyeicosatetraenoic acid (5-HETE) which eluted at 20 minutes.

SMILES | inhibition at 15 µM (5-lipoxygenase; read-out: % Inhibition 5-HETE) [%] | inhibition at 15 µM (5-lipoxygenase; read-out: % Inhibition LTB) [%] | other results
COc1cc(O)c2c(c1)C(C)(C)C(c1ccc(OC)c(OC)c1)=CC2=O |  |  | inhibition at 50 µM [1]: 10%
CC(=O)Oc1cc(OC(C)=O)c2c(c1)C(C)(C)C(c1ccc(OC(C)=O)c(OC(C)=O)c1)CC2=O (stereo not drawn) |  |  | inhibition at 50 µM [1]: 48%
COc1cc(OC)c2c(c1)C(C)(C)C(c1ccc(OC)c(OC)c1)=C(O)C2=O |  |  | inhibition at 50 µM [1]: 24%
COc1cc(OC)c2c(c1)C(C)(C)C(c1ccc(OC)c(OC)c1)CC2Sc1ccc(Cl)cc1 (stereo not drawn) [listing 1 of 2 here] |  |  | inhibition [1]: 14%
COc1cc(OC)c2c(c1)C(C)(C)C(c1ccc(OC)c(OC)c1)CC21OCCO1 (stereo not drawn) |  |  | inhibition [1]: 23%
COc1cc(OC)c2c(c1)C(C)(C)C(c1ccc(OC)c(OC)c1)CC2=NNC(=O)c1ccccc1 (stereo not drawn) | 22 | 38 | 
COc1cc(OC)c2c(c1)C(C)(C)C(c1ccc(OC)c(OC)c1)CC2=NNC(=O)c1ccccc1O (stereo not drawn) | 41 | 50 | 
COc1cc(OC)c2c(c1)C(C)(C)C(c1ccc(OC)c(OC)c1)CC2=NNC(C)=O (stereo not drawn) | 0 | 0 | 
CON=C1CC(c2ccc(OC)c(OC)c2)C(C)(C)c2cc(OC)cc(OC)c21 (stereo not drawn) | 55 | 47 | 
COc1cc(OC)c2c(c1)C(C)(C)C(c1ccc(OC)c(OC)c1)CC2=NOC(C)=O (stereo not drawn) | 13 | 18 | 
CC1=C(c2ccc(O)c(O)c2)C(C)(C)c2cc(O)cc(O)c2C1=O | 90 | 96 | inhibition at 5 µM (5-lipoxygenase; read-out: % Inhibition 5-HETE): 13%; inhibition at 5 µM (5-lipoxygenase; read-out: % Inhibition LTB): 46%
COc1cc(OC)c2c(c1)C(C)(C)C(c1ccc(OC)c(OC)c1)CC2=NOC(=O)C(C)(C)C (stereo not drawn) | 0 |  | 
COc1cc(OC)c2c(c1)C(C)(C)C(c1ccc(OC)c(OC)c1)CC2Sc1ccc(Cl)cc1 (stereo not drawn) [listing 2 of 2 here] | 36 |  | 
COc1cc(OC)c2c(c1)C(C)(C)C(c1ccc(OC)c(OC)c1)CC2=NN (stereo not drawn) | 35 |  | 
C=CCC1C(=O)c2c(OC)cc(OC)cc2C(C)(C)C1c1ccc(OC)c(OC)c1 (stereo not drawn) |  | 0 | 
CCOC(=O)C1C(=O)c2c(OC)cc(OC)cc2C(C)(C)C1c1ccc(OC)c(OC)c1 (stereo not drawn) | 69 | 89 | 
COc1ccc2c(c1)C(C)(C)C(c1ccc(OC)c(OC)c1)=CC2=O | 79 |  | 
COc1ccc(C2CC(=O)c3c(OC)cccc3C2(C)C)cc1OC (stereo not drawn) | 23 |  | 
COc1ccc(C2=CC(=O)c3c(OC)cccc3C2(C)C)cc1OC | 28 |  | 
COc1cc(O)c2c(c1)C(C)(C)C(c1ccc(OC)c(OC)c1)CC2=O (stereo not drawn) | 0 |  | 
CC1(C)c2cc(O)cc(O)c2C(=NO)CC1c1cc(O)cc(O)c1 (stereo not drawn) | 57 |  | 

SMILES | inhibition at 15 µM (5-lipoxygenase; read-out: % Inhibition 5-HETE) [%] | inhibition at 15 µM (5-lipoxygenase; read-out: % Inhibition LTB) [%] | other results
COc1cc(OC)cc(C2=CC(=O)c3c(OC)cc(OC)cc3C2(C)C)c1 | 0 | 0 | 
CC1(C)C(c2cc(O)cc(O)c2)=CC(=O)c2c(O)cc(O)cc21 | 11 |  | 
COc1cc(O)c2c(c1)C(C)(C)C(c1cc(O)cc(O)c1)CC2=O (stereo not drawn) | 75 |  | 
CC1(C)c2cc(O)cc(O)c2C(=O)CC1c1cccc(O)c1 (stereo not drawn) | 23 |  | 
COc1cc(OC)c2c(c1)C(C)(C)C(c1ccc(OC)c(OC)c1)CC(Sc1ccccc1)C2=O (stereo not drawn) | 61 |  | 
COc1cc(OC)c2c(c1)C(C)(C)C(c1ccc(OC)c(OC)c1)C=CC2=O (stereo not drawn) | 48 |  | 
CC(=O)Oc1cc(OC(C)=O)c2c(c1)C(C)(C)[C@H](c1ccc(OC(C)=O)c(OC(C)=O)c1)[C@H](OC(C)=O)C2=O (relative stereo) |  |  | inhibition at 50 µM [1]: 26%
CC(=O)Oc1cc(OC(C)=O)c2c(c1)C(C)(C)[C@H](c1ccc(OC(C)=O)c(OC(C)=O)c1)[C@@H](OC(C)=O)C2=O (relative stereo) |  |  | inhibition at 50 µM [1]: 41%
COc1cc(OC)c2c(c1)C(C)(C)[C@H](c1ccc(OC)c(OC)c1)[C@@H](OC(C)=O)C2=O (relative stereo) |  |  | inhibition at 50 µM [1]: 12%
COc1ccc(C2CC(=O)Cc3c(OC)cccc3C2(C)C)cc1OC (stereo not drawn) [8-(3,4-dimethoxyphenyl)-9,9-dimethyl-4-methoxy-5,7,8,9-tetrahydro-6H-benzocyclohepten-6-one] | 61 | 22 | 
COc1cc(OC)cc(C2CCC(=O)c3c(OC)cc(OC)cc3C2(C)C)c1 (stereo not drawn) [8-(3,5-dimethoxyphenyl)-6,7,8,9-tetradydro-2,4-dimethoxy-9,9-dimethyl-5H-benzocyclohepten-5-one] | 46 | 46 | 
COc1cc(OC)cc(C2=CC(=O)c3c(OC)cc(OC)cc3C2(C)C)c1 [drawing 84 [K=H]] |  |  | inhibition [1]: 33%
COc1cc(OC)cc(C2=CC(=O)c3c(cc(OC)c(OC)c3OC)C2(C)C)c1 [drawing 84 [K=OCH3]] |  |  | inhibition [1]: 21%
COc1ccc(CC2CC(C)(C)c3cc(OC)cc(OC)c3C2=O)cc1 (stereo not drawn) [drawing 85 [A=drawing 86; B=H]] |  |  | inhibition [1]: 0%
COc1cc(OC)cc(C2=CC(=O)c3c(cc(OC)c(OC)c3OC)C2(C)C)c1 [drawing 101 [R3/R4=O; E,G,P,L,K=OCH3; db yes]] | 7 | 1 | 
COc1cc(OC)c2c(c1)C(C)(C)CC(c1ccccc1)C2=O (stereo not drawn) [drawing 102 [A=C6H5; B=H]] | 64 |  | 
COc1ccc(CC2CC(C)(C)c3cc(OC)cc(OC)c3C2=O)cc1 (stereo not drawn) [drawing 102 [A=drawing 103; B=H]] | 86 |  | 
COc1ccc(CC2(Cc3ccc(OC)cc3)CC(C)(C)c3cc(OC)cc(OC)c3C2=O)cc1 [drawing 102 [A=drawing 104; B=drawing 105]] | 88 |  | 
COc1cc(OC)c2c(c1)C(C)(C)C(c1ccc(OC)c(OC)c1)CCO2 (stereo not drawn) [drawing 106 [X=O; R3/R4=H,H; J=H; L,P=OCH3]] | 39 | 28 | 
COc1cc(OC)c2c(c1)C(C)(C)C(c1ccc(OC)c(OC)c1)C(C)C(=O)O2 (stereo not drawn) [drawing 106 [X=O; R3/R4=O; J=CH3; L,P=OCH3], 4-(3,4-dimethoxyphenyl)-4,5-dihydro-7,9-dimethoxy-3,5,5-trimethyl-1-benzoxepin-2(3H)-one] | 20 | 2 | 
CC1(C)c2cc(O)cc(O)c2C(=O)CCC1c1ccc(O)c(O)c1 (stereo not drawn) [drawing 107 [X=O; db no; W,J,F=H; E,G,L,P=OH]] | 88 |  | 

Source: patent publication US5225436A, “Aryl substituted naphthalene derivatives” (Schering Corporation, priority 1991, dated 1993)
